Common to all, as to test: inhibition of tumour cell growth, NCI panel, 48 h
The subject of test [1] is UACC-257 melanoma.
The subject of test [2] is UO-31 renal.
For test [3], the system named is OVCAR-3 ovarian.
Test [4] has as its system K-562 leukemia.
The subject of test [5] is HL-60(TB) leukemia.
The test system of test [6] is NCI-H460 lung.
The subject of test [7] is HCC-2998 colon.
The subject of test [8] is HT29 colon.
In test [9] the test system is SNB-19 CNS.
Test [10] deals with ACHN renal.

Structures are written as SMILES.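 Cells were grown in 96-well plates and exposed to each compound for 48 hours at five concentrations; endpoints were interpolated linearly between bracketing concentrations, or set to the highest concentration if not reached. GI50 marks 50% less growth. Definition used: TGI = concentration required for complete inhibition of growth.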

Regarding `Cc1cc(N(CCC#N)CCC#N)ccc1N=Nc1ccc([N+](=O)[O-])cc1`, the TGI in test [1], in [2], in test [3], in test [4], in test [5] and in [6] was more than 100 µM throughout. Besides, the TGI was more than 100 µM in test [7], more than 100 µM in test [8], 57.3 µM in [9] and more than 100 µM in test [10].
As to `CC(=O)OCC1OC(n2cnc3c(I)nc(I)nc32)C(OC(C)=O)C1OC(C)=O` (configuration not stated), the TGI in test [1] is 27.5 µM; in test [2] it was 31.5 µM; in test [3], 20.1 µM; in test [4], 13.5 µM; in test [5], 5.52 µM; in test [6], 35.9 µM. The TGI amounted to 16.9 µM in test [7], 19.7 µM in [8], 25 µM in test [9] and 21.8 µM in test [10].
For the compound `Nc1ncn([C@@H]2C=C(CO)C(O)C2O)c(=O)n1` (some centres not stated), the TGI in [1], in [2], in test [3], in test [4], in test [5] and in test [6] was more than 100 µM in each case. For the same compound, the TGI in test [7], in [8], in test [9] and in test [10] was more than 100 µM each time.
For `CCN1CCC(O)(c2ccccc2)C(C(=O)c2ccccc2)C1` (configuration not stated), the TGI in [1] was 46.5 µM; in test [2], more than 70 µM; in test [3], 31.2 µM; in test [4] it was more than 66 µM; in [5], 46.8 µM; in test [6], more than 100 µM. Moreover, the TGI was more than 100 µM in [7], 39.7 µM in test [8], more than 100 µM in test [9] and 30.5 µM in test [10].
With `COC12c3ccccc3-c3ccccc3C1[C@@H](C(=O)O)[C@H]2C(=O)O` (some centres not stated), the TGI in [1], in test [2], in test [3], in [4], in test [5] and in test [6] was more than 10 µM each time. In addition, the TGI in [7], in [8], in [9] and in [10] was more than 10 µM each time.
Regarding `COc1cc(-c2cn(-c3ccc(Cl)cc3)c(=O)n2-c2ccccc2)cc(OC)c1OC`, the GI50 was more than 82.6 µM in test [1]; 89.3 µM in test [2]; more than 100 µM in test [3]; more than 100 µM in [4]; 3.35 µM in [5]; more than 80.9 µM in test [6]. Besides, the GI50 in [7] is more than 56.3 µM; in [8], 56.3 µM; in test [9], 44.7 µM; in test [10], 34.8 µM. In addition, the TGI in test [1] was more than 100 µM; in [2], more than 100 µM; in test [3] it was more than 100 µM; in test [4], more than 100 µM; in test [5], more than 38.5 µM; in [6], more than 100 µM. The TGI in test [7], in test [8], in test [9] and in [10] was more than 100 µM each time.
Take `O=C(/C=C/c1cccnc1)/C=C/c1cccnc1`: the GI50 in [1] was 7.63 µM; in test [2] it was 0.562 µM; in test [3], 1.07 µM; in [4], 0.383 µM; in test [5], 0.707 µM; in test [6] it was 2.5 µM. The GI50 was 0.846 µM in [7], 1.3 µM in [8], 3.64 µM in test [9] and 2.19 µM in test [10]. The TGI was found to be 20.3 µM in [1]; 1.89 µM in [2]; 2.33 µM in test [3]; 7.29 µM in [6]; 2.19 µM in [7]; 3.13 µM in test [8]. Besides, the results for the TGI in test [9] and in [10] were 11.6 µM and 5.48 µM, respectively.
Turning to `O=C1/C(=C\c2ccccc2)CN(C(=O)c2ccccc2F)C/C1=C\c1ccccc1`, the GI50 in [1] is 2.15 µM; in [2], 1.53 µM; in [3], 2.36 µM; in test [4] it was 0.992 µM; in [5] it was 2.78 µM; in test [6], 2.67 µM. Besides, the GI50 is 2.11 µM in test [7], 1.48 µM in test [8], 1.85 µM in [9] and 1.85 µM in test [10]. For the same compound, the TGI in test [1] was 4.79 µM; in [2], 3.24 µM; in test [3], 5.35 µM; in [4], more than 20.7 µM; in [5] it was 7.36 µM; in test [6], 7.35 µM. In addition, the TGI was determined as 3.66 µM in [7], 4.17 µM in test [8], 4.15 µM in test [9] and 3.46 µM in test [10].
As for `COC(=O)Oc1nn(C(=O)OC)c(=O)c2ccccc12` (tested in a mixture with another compound), the TGI in test [1], in test [2], in test [3], in test [4], in [5] and in test [6] was more than 100 µM throughout. Further, the TGI in [7], in test [8], in test [9] and in test [10] was more than 100 µM throughout.
On to `CCOC(=O)c1c(-c2ccccc2)[nH]c2ccccc2c1=O`, for which the TGI in test [1], in test [2], in test [4], in test [5], in test [6] and in test [7] was more than 100 µM each time. In addition, the TGI in [8], in test [9] and in test [10] was more than 100 µM in each case.
Take `C/C=C(\C)C(=O)O[C@@H]1C=CC(=O)O[C@H]1COC(=O)[C@H](C)O`: the GI50 in test [1] was 13.4 µM; in [2], 12.7 µM; in test [3], 14 µM; in test [4] it was 5.21 µM; in [5], 4.41 µM; in [6], 12.7 µM. Also, the GI50 is 14.8 µM in test [7], 5.93 µM in [8], 19.8 µM in [9] and 6.16 µM in test [10]. For the same compound, the TGI is 46.8 µM in test [1]; 27.5 µM in [2]; 27.6 µM in test [3]; more than 100 µM in [4]; 21.3 µM in test [5]; 28.6 µM in test [6]. For the same compound, the TGI in [7] worked out at 28.7 µM; in [8] it was 20.9 µM; in test [9], 56 µM; in [10], 19 µM.
On to `Nc1nccc(C#Cc2cncnc2Nc2ccc(OCc3cccc(F)c3)c(Cl)c2)n1`, for which the GI50 is 3.92 µM in test [1]; 4.34 µM in test [2]; 3.83 µM in test [3]; 4.24 µM in test [4]; 5.7 µM in test [5]; 5.13 µM in test [6]. The GI50 is 4.1 µM in test [7], 4.57 µM in test [8], 4.79 µM in test [9] and 4.2 µM in [10]. The TGI is 7.64 µM in test [1]; 10.1 µM in test [2]; 7.18 µM in [3]; more than 25 µM in test [4]; 14.5 µM in [5]; 10.3 µM in [6]. The TGI in test [7] was found to be 7.55 µM; in test [8] it was 9.05 µM; in [9], 10 µM; in [10], 10.6 µM.
On to `COc1ccc(Nc2nc3c(N)cc(C(F)(F)F)cc3nc2-c2ccccc2)cc1`, for which the TGI in test [1], in test [2], in test [3], in test [4], in test [5] and in [6] was more than 100 µM throughout. The TGI in test [7], in test [9] and in [10] was more than 100 µM in each case.
On to `Cn1cc(-c2nonc2-c2cn(C)c3ccc(Br)cc23)c2ccccc21`, for which the GI50 in [2] is 3.39 µM; in test [3], 2.8 µM; in test [4], 1.08 µM; in test [5], 2.95 µM; in test [6], 3.31 µM; in [7], 5.45 µM. The GI50 is 3.26 µM in [8], 5.33 µM in [9] and 4.29 µM in test [10]. Moreover, the TGI in test [2] was more than 100 µM; in test [3], 8.61 µM; in test [4], more than 100 µM; in test [5], more than 100 µM; in test [6], more than 100 µM; in test [7], more than 100 µM. Besides, the TGI in [8], in [9] and in test [10] was more than 100 µM each time.
Consider `CN(C)c1ccc(N=C(C#N)c2nc(N)nc(N3CCOCC3)n2)cc1`, for which the GI50 in test [1] was more than 100 µM; in test [2], 71.7 µM; in test [3] it was 34.6 µM; in test [4], 62.1 µM; in test [5] it was 70.4 µM; in test [6], 48.1 µM. For the same compound, the GI50 in test [7] was more than 100 µM; in test [8] it was 67.5 µM; in test [9] it was more than 100 µM; in test [10], 23.3 µM. For the same compound, the TGI in test [1], in [2], in test [3], in test [4], in [5] and in [6] was more than 100 µM throughout. In addition, the TGI in test [7] was more than 100 µM; in [8] it was more than 100 µM; in test [9] it was more than 100 µM; in test [10], 68.4 µM.
On to `COc1cc2c(cc1OCCCN1CCN(CCCOc3cc4c(cc3OC)C(=O)C3CCC[C@H]3C=N4)CC1)N=C[C@@H]1CCCC1C2=O` (some centres not stated), for which the GI50 was 13 µM in test [1]; 17.1 µM in [2]; 8.17 µM in [3]; 2.09 µM in test [4]; 1.51 µM in [5]; 4.45 µM in [6]. Moreover, the GI50 in test [7] is 7.21 µM; in test [8], 23.3 µM; in test [9] it was 23.7 µM; in [10] it was 55.7 µM. Besides, the TGI was more than 46.4 µM in test [1]; more than 51.3 µM in [2]; 60.6 µM in [3]; more than 100 µM in test [4]; 4.1 µM in test [5]; more than 69.9 µM in [6]. For the same compound, the TGI in test [7] was 17.5 µM; in [8] it was more than 68.8 µM; in test [9] it was more than 100 µM; in test [10], more than 100 µM.
As for `Clc1ccc(C2=NN(c3ccccc3)C3c4cc(Br)ccc4OCC23)cc1` (configuration not stated), the TGI in test [1], in test [2], in test [3], in [4], in [5] and in test [6] was more than 100 µM throughout. In addition, the TGI in test [7], in test [8], in test [9] and in test [10] was more than 100 µM each time.
In the case of `COC(=O)C12C3C=CC(O3)C1C1C=CC2O1` (configuration not stated), the TGI in test [1], in test [2], in test [3], in [4], in test [5] and in test [6] was more than 100 µM throughout. Besides, the TGI in [7], in [8], in test [9] and in test [10] was more than 100 µM each time.
Turning to `COC(=O)C1(c2ccc(OC)cc2)NC(c2ccccc2)C2C(=O)N(c3ccc(OC)cc3)C(=O)C21` (configuration not stated), the TGI in test [1], in test [2], in [4], in test [5], in test [6] and in test [7] was more than 100 µM each time. Further, the TGI in [8], in test [9] and in [10] was more than 100 µM throughout.
Take `Nc1ccc(C(=O)O)c2[nH]c3ccccc3c(=O)c12`: the TGI in test [1], in test [2], in test [4], in test [5], in [6] and in [7] was more than 100 µM in each case. Besides, the TGI in test [8], in test [9] and in test [10] was more than 100 µM throughout.

The values are drawn from PubChem BioAssay (NCI).
